Reference: patent US20250026724A1, “(1,4,5-TRISUBSTITUTED 1H-PYRAZOL-3-YL)OXY-2-ALKYLTHIOALKYL ACIDS AND -ALKYL ACID DERIVATIVES, SALTS THEREOF AND USE THEREOF AS ACTIVE HERBICIDAL INGREDIENTS” (BAYER AKTIENGESELLSCHAFT, priority 2021, published 2025)

Experiments:
Type in all cases: in vivo
[1] = system: Abutilon theophrasti (ABUTH); assay: Post-emergence herbicidal action, greenhouse pot trial; settings: visual rating after about 3 weeks
How it was run: (§1)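 Using WP or EC formulations applied at the one-leaf stage, compounds were sprayed onto weeds at 320 g/ha or lower. Percent activity was estimated visually about three weeks later, with dead plants scored 100% and control-like plants 0%.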

[2] = system: Amaranthus retroflexus (AMARE); assay: as above; settings: visual rating after about 3 weeks
How it was run: as §1

Bassia scoparia (KCHSC) = assay: as above
How it was run: as §1

[3] = system: Echinochloa crus-galli (ECHCG); assay: as above; settings: for Post-emergence effect at 320 g/ha against ECHCG in %: visual rating after about 3 weeks
How it was run: as §1

[4] = system: Pharbitis purpurea (PHBPU); assay: as above; settings: visual rating after about 3 weeks
How it was run: as §1

[5] = system: Polygonum convolvulus (POLCO); assay: as above; settings: visual rating after about 3 weeks
How it was run: as §1

Setaria viridis (SETVI) = assay: as above; settings: for Post-emergence effect at 320 g/ha against SETVI in %: visual rating after about 3 weeks
How it was run: as §1

Viola tricolor (VIOTR) = assay: as above
How it was run: as §1

[6] = system: Triticum aestivum (TRZAS); assay: Post-emergence crop plant compatibility, greenhouse pot trial; settings: post-emergence, in comparison to untreated controls
How it was run: (§2)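 Crops grown in sandy loam, sprayed at one-leaf stage (2–3 weeks post-sowing) with WP or EC formulations plus 0.5% additive at 600 l/ha water. Damage rated visually after ~3 weeks versus untreated controls, as % (100% = dead); suffixes a–c denote dosages.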

Zea mays (ZEAMX) = assay: as above; settings: in comparison to untreated controls
How it was run: as §2

Glycine max (GLXMA) = assay: as above; settings: in comparison to untreated controls
How it was run: as §2

Oryza sativa (ORYSA) = assay: as above; settings: in comparison to untreated controls
How it was run: as §2

Avena fatua (AVEFA) = assay: Post-emergence herbicidal action, greenhouse pot trial; settings: 320 g/ha, visual rating after about 3 weeks
How it was run: as §1

[7] = system: Digitaria sanguinalis (DIGSA); assay: as above; settings: visual rating after about 3 weeks
How it was run: as §1

Lolium rigidum (LOLRI) = assay: as above; settings: 320 g/ha, visual rating after about 3 weeks
How it was run: as §1

[8] = system: Matricaria inodora (MATIN); assay: as above; settings: visual rating after about 3 weeks
How it was run: as §1

[9] = system: Alopecurus myosuroides (ALOMY); assay: as above; settings: 320 g/ha, visual rating after about 3 weeks
How it was run: as §1

Veronica persica (VERPE) = assay: as above; settings: visual rating after about 3 weeks
How it was run: as §1

| Structure (SMILES) | Post-emergence effect at 80 g/ha against ABUTH in % [1] | Post-emergence effect at 320 g/ha against ABUTH in % [1] | Post-emergence effect at 320 g/ha against AMARE in % [2] | Post-emergence effect against KCHSC (Bassia scoparia (KCHSC); 320 g/ha) | Post-emergence effect at 320 g/ha against ECHCG in % [3] | Post-emergence effect at 80 g/ha against PHBPU in % [4] | Post-emergence effect at 320 g/ha against PHBPU in % [4] | Post-emergence effect at 80 g/ha against POLCO in % [5] | Post-emergence effect at 320 g/ha against POLCO in % [5] | Post-emergence effect at 320 g/ha against SETVI in % (Setaria viridis (SETVI)) | Post-emergence effect against VIOTR (Viola tricolor (VIOTR); 20 g/ha) | Post-emergence effect against VIOTR (Viola tricolor (VIOTR); 80 g/ha) | Post-emergence effect against VIOTR (Viola tricolor (VIOTR); 320 g/ha) | Post-emergence effect against TRZAS (crop plant compatibility) ([6]; 20 g/ha) | Post-emergence effect against ZEAMX (crop plant compatibility) (Zea mays (ZEAMX); 20 g/ha) | Post-emergence effect against GLXMA (crop plant compatibility) (Glycine max (GLXMA); 20 g/ha) | Post-emergence effect against GLXMA (crop plant compatibility) (Glycine max (GLXMA); 80 g/ha) | Post-emergence effect at 80 g/ha against AMARE in % [2] | Post-emergence effect at 320 g/ha against DIGSA in % [7] | Post-emergence effect at 320 g/ha against MATIN in % [8] | other results |
| --- | --- | --- | --- | --- | --- | --- | --- | --- | --- | --- | --- | --- | --- | --- | --- | --- | --- | --- | --- | --- | --- |
| COC(=O)CCOC(=O)C(Oc1nn(-c2ncccc2F)c(-c2ccc(F)nc2)c1Br)SC (single isomer, unassigned) [Example I-22] | 90% | 90% | 80% | 90% | 90% | 90% | 90% | 90% | 90% | 80% | 80% | 90% | 90% | 0% | 0% | – | – | – | – | – | Post-emergence effect at 20 g/ha against PHBPU in % ([4]; 20 g/ha): 80% |
| CCOC(=O)C(Oc1nn(-c2cc(F)ccc2F)c(-c2cncc(F)c2)c1C1CC1)SC (stereo not shown) [Example I-05] | – | – | – | – | – | – | – | – | – | – | – | – | – | 0% | 20% | 0% | 10% | – | – | – | pest or weed control at 320 g/ha ([3]; Echinochloa crus-galli, 504 h, read-out: Post-emergence effect at 320 g/ha against ECHCG in %): 80%; pest or weed control at 320 g/ha (Setaria viridis (SETVI); Setaria viridis, 504 h, read-out: Post-emergence effect at 320 g/ha against SETVI in %): 90%; Post-emergence effect against ORYSA (crop plant compatibility) (Oryza sativa (ORYSA); 20 g/ha): 0%; Post-emergence effect against ORYSA (crop plant compatibility) (Oryza sativa (ORYSA); 80 g/ha): 0%; Post-emergence effect against ORYSA (crop plant compatibility) (Oryza sativa (ORYSA); 320 g/ha): 10%; Post-emergence effect against TRZAS (crop plant compatibility) ([6]; 80 g/ha): 10% |
| COC(=O)CCOC(=O)C(Oc1nn(-c2ncccc2F)c(-c2cncc(F)c2)c1Br)SC (stereo not shown) [Example I-45] | 90% | 90% | 90% | 90% | 90% | 80% | 80% | 80% | 80% | 90% | 80% | 90% | 90% | 0% | 0% | – | – | 90% | 90% | 90% | Post-emergence action at 20 g/ha against ABUTH in % [1]: 90%; Post-emergence effect at 20 g/ha against AMARE in % [2]: 80%; Post-emergence effect at 320 g/ha against AVEFA in % (Avena fatua (AVEFA)): 100%; Post-emergence effect at 20 g/ha against KCHSC in % (Bassia scoparia (KCHSC); 20 g/ha, visual rating after about 3 weeks): 90%; Post-emergence effect against KCHSC (Bassia scoparia (KCHSC); 80 g/ha): 90%; Post-emergence effect at 80 g/ha against DIGSA in % ([7]; 80 g/ha): 80%; Post-emergence effect at 320 g/ha against LOLRI in % (Lolium rigidum (LOLRI)): 100%; Post-emergence effect at 20 g/ha against MATIN in % ([8]; 20 g/ha): 80%; Post-emergence effect at 80 g/ha against MATIN in % [8]: 90%; Post-emergence effect against ZEAMX (crop plant compatibility) (Zea mays (ZEAMX); 80 g/ha): 0% |
| COC(=O)C(C)COC(=O)C(Oc1nn(-c2ccccc2F)c(-c2ccc(F)nc2)c1I)SC (stereo not shown) [Example I-53] | – | 80% | 90% | 80% | 100% | – | 80% | – | 90% | 90% | – | 80% | 90% | 0% | – | 0% | 0% | – | 80% | 80% | – |
| COC(=O)CCOC(=O)C(Oc1nn(-c2ccccc2F)c(-c2ccc(F)nc2)c1I)SC (stereo not shown) [Example I-54] | – | 80% | 90% | – | 90% | – | – | – | 80% | 90% | – | 80% | 90% | 0% | 0% | 0% | 0% | 90% | 80% | 80% | Post-emergence effect at 320 g/ha against ALOMY in % [9]: 80% |
| COC(=O)CCOC(=O)C(Oc1nn(-c2ncccc2F)c(-c2cncc(F)c2)c1C1CC1)SC (stereo not shown) [Example I-63] | 80% | 90% | 90% | 90% | 90% | 90% | 90% | – | 80% | 90% | 90% | 90% | 90% | 20% | 0% | – | – | 80% | – | 90% | Post-emergence action at 20 g/ha against ABUTH in % [1]: 80%; Post-emergence effect at 20 g/ha against AMARE in % [2]: 80%; Post-emergence effect at 320 g/ha against AVEFA in % (Avena fatua (AVEFA)): 100%; Post-emergence effect at 320 g/ha against LOLRI in % (Lolium rigidum (LOLRI)): 90%; Post-emergence effect at 80 g/ha against MATIN in % [8]: 80%; Post-emergence effect at 80 g/ha against VERPE in % (Veronica persica (VERPE); 80 g/ha): 80%; Post-emergence effect at 320 g/ha against VERPE in % (Veronica persica (VERPE); 320 g/ha): 90% |
